Experiment: solubility of crystalline zoledronic acid trihydrate compared with the monohydrate
Type: physicochemical
Conditions: relative to zoledronic acid monohydrate; solvent and temperature not stated

O=P(O)(O)C(O)(Cn1ccnc1)P(=O)(O)O [zoledronic acid trihydrate, (1-Hydroxy-2-imidazol-1-yl-phosphonoethyl) phosphonic acid]
solubility: substantially equal to that of the monohydrate

From patent US20080255366A1, “Crystalline Trihydrate of Zoledronic Acid” (DR. REDDY'S LABORATORIES LIMITED, priority 2005, published 2008)
